One compound from patent US6291507A, “Chemical compounds” (Astrazeneca UK Limited, priority 1998, dated 2001) can be followed below.

Molecules are shown by their SMILES.

This experiment deals with T1, hMCP-1 receptor (MCP-1 receptor B, CCR2B) (Homo sapiens, UniProt P41597).
T1 construct: expressed in transfected cells; host or cells: CHO-K1 (clone 7, CHO-CCR2B), membrane fragments
T1 sequence (P41597 1-360 isoform P41597-2): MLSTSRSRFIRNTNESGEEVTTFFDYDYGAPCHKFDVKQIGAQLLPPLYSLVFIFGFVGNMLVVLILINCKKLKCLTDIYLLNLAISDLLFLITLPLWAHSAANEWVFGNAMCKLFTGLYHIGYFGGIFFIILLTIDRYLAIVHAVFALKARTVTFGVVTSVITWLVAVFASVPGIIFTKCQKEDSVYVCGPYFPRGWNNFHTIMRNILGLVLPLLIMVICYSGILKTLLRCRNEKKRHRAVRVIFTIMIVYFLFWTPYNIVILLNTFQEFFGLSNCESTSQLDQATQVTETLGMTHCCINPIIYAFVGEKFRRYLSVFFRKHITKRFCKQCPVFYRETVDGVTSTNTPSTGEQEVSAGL
Put plainly: hMCP-1 receptor-binding assay. The conditions noted are these: competition with 100 pM 125I-labelled MCP-1; CHO-CCR2B cell membranes; 0.1-200 μM, eight point dose-response curves in duplicate. The text has this:
a) hMCP-1 Receptor-binding Assay
The MCP-1 receptor B (CCR2B) cDNA was cloned by PCR from THP-1 cell RNA using suitable oligonucleotide primers based on the published MCP-1 receptor sequences (Charo et al., 1994, Proc. Natl. Acad. Sci. USA, 91, 2752). The resulting PCR products were cloned into vector PCR-II™ (InVitrogen, San Diego, Calif.). Error free CCR2B cDNA was subcloned as a Hind III-Not I fragment into the eukaryotic expression vector pCDNA3 (InVitrogen) to generate pCDNA3/CC-CKR2A and pCDNA3/CCR2B respectively.
Linearised pCDNA3/CCR2B DNA was transfected into CHO-KI cells by calcium phosphate precipitation (Wigler et al., 1979, Cell, 16, 777). Transfected cells were selected by the addition of Geneticin Sulphate (G418, Gibco BRL) at 1 mg/ml, 24 hours after the cells had been transfected. Preparation of RNA and Northern blotting were carried out as described previously (Needham et al., 1995, Prot. Express. Purific., 6, 134). CHO-K1 clone 7 (CHO-CCR2B) was identified as the highest MCP-1 receptor B expressor.
CHO-CCR2B cells were grown in DMEM supplemented with 10% foetal calf serum, 2 mM glutamine, lx Non-Essential Amino Acids, 1× Hypoxanthine and Thymidine Supplement and Penicillin-Streptomycin (at 50 μg streptomycin/ml; Gibco BRL). […]

`Cc1c2c(n(Cc3ccc(Cl)c(Cl)c3)c1C(=O)O)CCCC2=O` [Example 4a, 1-(3,4-Dichlorobenzyl)-3-methyl-4-oxo-4,5,6,7-tetrahydroindole-2-carboxylicAcid] returned an IC50 of 400 nM.
